Our source for the IC50 and melting point values is patent US20070270418A1, “Inhibitors of P38 and Methods of Using the Same” (priority 2003, published 2007).

Data set [1] addresses T1, p38α (Homo sapiens, UniProt Q16539).
T1 construct: p38 MAP Kinases are recombinant human full-length proteins with an amino-terminal GST fusion; GST (N); purchased Upstate (Charlottesville, Va.); host or cells: E. coli
Description: p38 MAP Kinase assay, ATF2 phosphorylation (ELISA). The class given is biochemical. To be noted: 40 μM ATP. In outline:
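ATF2 Thr69 phosphorylation was quantified by ELISA (HRP/TMB, 450 nm) after EDTA termination. Reactions: 6 ng GST-fused full-length human p38α, 15 min compound pre-incubation at room temperature, then 30 min at 37° C with 40 μM ATP and 1.25 μM GST-ATF2 (aa 19-96), pH 7.5 HEPES buffer.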
(In an ELISA, binding on a coated surface is turned into a signal by an enzyme label.)

The subject of data set [2] is TNFα release from THP-1 cells. Description: TNFα release from LPS-stimulated THP-1 cells. The class given is cell-based. To be noted: Homo sapiens, THP-1, 18 h. In outline:
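THP-1 cells (10^6 cells/ml on resuspension) preincubated with compound 30 min at 37°C, 5% CO2, final DMSO ≤0.5%, then stimulated with 10 μg/ml LPS for 18 h (TNFα). Supernatants collected for TNFα analysis.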

[3] abbreviates: LPS 10 μg/ml, 18 hours, read-out: TNFα (THP-1) IC50.
Where [4] appears, read: read-out: TNFα (THP-1) IC50 (nM).

Where two headings read alike, the source gives them in different places.

T1 sequence (Q16539 whole entry, the tested form may be a part): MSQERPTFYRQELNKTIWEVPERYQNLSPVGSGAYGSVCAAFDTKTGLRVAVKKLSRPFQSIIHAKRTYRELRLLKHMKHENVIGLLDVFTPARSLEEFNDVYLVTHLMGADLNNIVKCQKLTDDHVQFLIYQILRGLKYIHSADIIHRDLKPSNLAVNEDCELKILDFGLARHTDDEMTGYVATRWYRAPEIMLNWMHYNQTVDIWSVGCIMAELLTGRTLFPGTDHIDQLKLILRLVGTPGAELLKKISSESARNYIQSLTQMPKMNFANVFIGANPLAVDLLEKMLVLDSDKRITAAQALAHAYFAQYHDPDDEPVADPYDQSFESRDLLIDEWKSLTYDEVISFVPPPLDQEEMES

With `CC(C)(CO)CNc1nccc(-c2c(-c3ccc(F)cc3)nc3occn23)n1` [XXXIX, 3-({4-[6-(4-Fluorophenyl)imidazo[2,1-b][1,3]oxazol-5-yl]pyrimidin-2-yl}amino)-2,2-dimethylpropan-1-ol], the melting point – broadly, the temperature, or range, at which the solid turns liquid – was determined as 149 °C. Besides, the IC50 (usually the concentration that inhibits the measured activity by half) in data set [1] stood at 5.25 nM. Besides, in data set [2] (setting [3]), the IC50 was found to be 5.88 nM.

`CS(=O)(=O)c1nccc(-c2c(-c3ccc(F)cc3)nc3sccn23)n1` [CXL, 6-(4-fluorophenyl)-5-(2-methanesulfonyl-pyrimidin-4-yl)-imidazo[2,1-b]thiazole] registered a melting point of 197 to 198 °C. The same molecule displayed a half-inhibitory concentration (IC50) in data set [1] of 966 nM. Moreover, in data set [2] (setting [3]), the IC50 was found to be 4860 nM.

The molecule `CSc1nccc(-c2c(-c3ccc(F)cc3)nc3occn23)n1` [X, 6-(4-fluorophenyl)-5-[2-(methylsulfanyl)pyrimidin-4-yl]imidazo[2,1-b][1,3]oxazole] returned a melting point of 144 to 145 °C. Moreover, the 50% inhibitory concentration (IC50) in data set [1] turned out to be 1130 nM.

In the case of `NCCCNc1nccc(-c2c(-c3ccc(F)cc3)nc3occn23)n1` [XCI], the figures for the IC50 in data set [1] and in data set [2] (setting [3]) were 49.9 nM and 188 nM, respectively.

On to `CN1[C@@H]2CC[C@H]1C[C@@H](Nc1nccc(-c3c(-c4ccccc4Cl)nc4occn34)n1)C2` [CCXCVII], for which the half-maximal inhibitory concentration (IC50) in data set [1] was 6.8 nM; in data set [2] (setting [4]), 24.4 nM.

Consider `CN(C)CC(C)(C)CNc1nccc(-c2c(-c3ccc(F)cc3F)nc3occn23)n1` [CCXCIX], for which the IC50 in data set [1] came to 6.1 nM; in data set [2] (setting [3]) it was 17.8 nM.

As to `OCCN(CCO)c1nccc(-c2c(-c3ccc(F)cc3)nc3occn23)n1` [XCIII], the IC50 in data set [1] was found to be 120 nM; in data set [2] (setting [3]), 457 nM.

`Fc1ccc(-c2nc3occn3c2-c2ccnc(NCc3cccnc3)n2)cc1` [LXXXV]: the IC50 in data set [1] was found to be 66.3 nM; in data set [2] (setting [3]) it was 39.3 nM.

For the molecule `Fc1ccc(-c2nc3occn3c2-c2ccnc(N[C@H]3CN4CCC3CC4)n2)c(F)c1` [CCCIV], the IC50 amounted to 3.8 nM in data set [1] and 1.7 nM in data set [2] (setting [4]).

For the molecule `C[C@@H](Nc1nccc(-c2c(-c3ccc(F)cc3)nc3occn23)n1)[C@@H](O)c1ccc(O)cc1` [LXXVI], the IC50 was determined as 6.72 nM in data set [1] and 41.2 nM in data set [2] (setting [3]).

Turning to `Fc1ccc(-c2nc3sccn3c2-c2ccnc(OCC3CC3)n2)cc1` [CL], the concentration for half-maximal inhibition (IC50) in data set [1] was 256 nM; in data set [2] (setting [3]), 218 nM.

Regarding `CC[C@H](C)[C@@H](CO)Nc1nccc(-c2c(-c3ccc(F)cc3)nc3occn23)n1` [LXIV], the values for the IC50 in data set [1] and in data set [2] (setting [3]) were 174 nM and 13.2 nM, respectively.

For `FC(F)(F)c1cccc(-c2nc3occn3c2-c2ccnc(N[C@H]3CN4CCC3CC4)n2)c1` [CCXCIV], the half-maximal inhibitory concentration (IC50) in data set [1] came out at 16.4 nM; in data set [2] (setting [3]) it was 90 nM.

Turning to `CCNc1nccc(-c2c(-c3ccc(F)cc3)nc3occn23)n1` [XCV], the IC50 in data set [1] stood at 3.42 nM; in data set [2] (setting [3]), 18 nM.

With `CCCC[C@@H](CO)Nc1nccc(-c2c(-c3ccc(F)cc3)nc3sccn23)n1` [CCXXII], the IC50 in data set [1] was 5.45 nM; in data set [2] (setting [3]) it was 49.6 nM.

`CN(C)CCNc1nccc(-c2c(-c3ccc(F)cc3)nc3occn23)n1` [XXVI]: the IC50 in data set [1] is 480 nM; in data set [2] (setting [3]), 100 nM.

On to `Fc1ccc(-c2nc3occn3c2-c2ccnc(NCCCN3CCOCC3)n2)cc1` [LIII], for which the half-inhibitory concentration (IC50) in data set [1] was 361 nM; in data set [2] (setting [3]), 236 nM.

As to `OC1(CNc2nccc(-c3c(-c4ccc(F)cc4)nc4occn34)n2)CCCc2ccccc21` (stereo not drawn) [CXXIII], the half-maximal inhibitory concentration (IC50) in data set [1] came out at 27.2 nM; in data set [2] (setting [3]) it was 99 nM.

`COC(=O)[C@@H](CC(C)C)Nc1nccc(-c2c(-c3ccc(F)cc3)nc3sccn23)n1` [CLXXI]: the 50% inhibitory concentration (IC50) amounted to 14.9 nM in data set [1] and 3970 nM in data set [2] (setting [3]).

`Fc1ccc(-c2nc3sccn3c2-c2ccnc(NCCN3CCN(Cc4ccccc4)CC3)n2)cc1` [CCLVIII]: the IC50 in data set [1] turned out to be 57.7 nM; in data set [2] (setting [3]) it was 643 nM.

As to `CN1[C@@H]2CC[C@H]1C[C@@H](Nc1nccc(-c3c(-c4ccc(F)cc4F)nc4occn34)n1)C2` [CCCXII], the IC50 in data set [1] was 2.6 nM; in data set [2] (setting [4]) it was 1.2 nM.

Turning to `COc1nccc(-c2c(-c3ccc(F)cc3)nc3sccn23)n1` [CLV], the half-inhibitory concentration (IC50) in data set [1] is 286 nM; in data set [2] (setting [3]), 402 nM.

Regarding `CC[C@H](CO)Nc1nccc(-c2c(-c3ccc(F)cc3)nc3occn23)n1` [XXVII], the half-maximal inhibitory concentration (IC50) in data set [1] turned out to be 20.5 nM; in data set [2] (setting [3]) it was 6.08 nM.

As to `Fc1ccc(-c2nc3occn3c2-c2ccnc(NCc3ccccn3)n2)cc1` [XLVIII], the concentration for half-maximal inhibition (IC50) in data set [1] came out at 74 nM; in data set [2] (setting [3]), 96.8 nM.

For `Cc1ccccc1-c1nc2occn2c1-c1ccnc(NC2CCNCC2)n1` [CCCVIII], the results for the IC50 in data set [1] and in data set [2] (setting [3]) were 10 nM and 24 nM, respectively.

As for `CCC(CO)(CO)Nc1nccc(-c2c(-c3ccc(F)cc3)nc3occn23)n1` [CIX], the figures for the IC50 in data set [1] and in data set [2] (setting [3]) were 30.5 nM and 19.8 nM, respectively.

Consider `Fc1ccc(CCNc2nccc(-c3c(-c4ccc(F)cc4)nc4occn34)n2)cc1` [CXXI], for which the results for the IC50 in data set [1] and in data set [2] (setting [3]) were 11.2 nM and 26.4 nM, respectively.

`C[C@@H](Nc1nccc(-c2c(-c3ccc(F)cc3)nc3occn23)n1)[C@@H](O)c1ccccc1` [LXVIII]: the IC50 worked out at 79.1 nM in data set [1] and 140 nM in data set [2] (setting [3]).

With `Fc1ccc(-c2nc3sccn3c2-c2ccnc(OCc3ccccc3)n2)cc1` [CXLIX], the half-inhibitory concentration (IC50) came out at 152 nM in data set [1] and 391 nM in data set [2] (setting [3]).

Consider `Cc1ccc(-c2nc3sccn3c2-c2ccnc(N[C@H](CO)C(C)C)n2)cc1` [CCXI], for which the concentration for half-maximal inhibition (IC50) in data set [1] was 147 nM; in data set [2] (setting [3]), 58.9 nM.

On to `CC(=O)N1CCC(Nc2nccc(-c3c(-c4ccc(F)cc4F)nc4occn34)n2)CC1` [CCCXVII], for which the values for the IC50 in data set [1] and in data set [2] (setting [3]) were 3 nM and 13.7 nM, respectively.

As for `CC(C)(C)OC(=O)N1CCCC1CNc1nccc(-c2c(-c3ccc(F)cc3)nc3sccn23)n1` (stereo not drawn) [CCLXIV], the IC50 in data set [1] worked out at 7.26 nM; in data set [2] (setting [3]) it was 27.5 nM.

Consider `CCC(CO)(CO)Nc1nccc(-c2c(-c3ccc(F)cc3)nc3sccn23)n1` [CLXXX], for which the 50% inhibitory concentration (IC50) is 80.8 nM in data set [1] and 57.4 nM in data set [2] (setting [3]).

Regarding `O=C1OCC[C@H]1Nc1nccc(-c2c(-c3ccc(F)cc3)nc3occn23)n1` [LXII], the IC50 in data set [1] came out at 453 nM; in data set [2] (setting [3]) it was 258 nM.

On to `O[C@H]1Cc2ccccc2[C@H]1Nc1nccc(-c2c(-c3ccc(F)cc3)nc3occn23)n1` [LVIII], for which the IC50 came to 97.9 nM in data set [1] and 1190 nM in data set [2] (setting [3]).

With `Fc1ccc(-c2nc3occn3c2-c2ccnc(NC3CCNCC3)n2)c(F)c1` [CCLXXXV], the concentration for half-maximal inhibition (IC50) in data set [1] was found to be 3.3 nM; in data set [2] (setting [3]), 9.9 nM.

Consider `CC(C)(CO)Nc1nccc(-c2c(-c3ccc(F)cc3)nc3occn23)n1` [CXVIII], for which the results for the IC50 in data set [1] and in data set [2] (setting [3]) were 2.91 nM and 26.3 nM, respectively.

As for `Fc1ccc(CNc2nccc(-c3c(-c4ccc(F)cc4)nc4occn34)n2)cc1` [XCIV], the half-inhibitory concentration (IC50) in data set [1] stood at 90.9 nM; in data set [2] (setting [3]), 394 nM.
